Results taken from US7582678B2, “Use of branched-chain fatty acids and derivatives thereof for the treatment of pain” (D-PHARM Limited, priority 1998, dated 2009).
Marks after values point to notes of the source that are not given here.

Tests used:
Male CD-1 mice = assay: Tail flick assay (radiated heat, acute pain) in mice; details: for size of analgesic effect, ranking among tested compounds: tail flick, Table 1;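 for all read-outs here: infrared heat aimed at the tail of restrained mice, time until tail flick recorded as mean of 2-3 readings, 4-8 animals per group, compared with vehicle-treated animals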
Experimental: The analgesic effect of branched-chain fatty acids (BFAs) and their DP-BFAs derivatives was tested by using the tail flick assay in mice.
This model uses radiated infrared (IR) heat source that is directed to the tail of a restrained mouse. The threshold of tolerance for heat is indicated by a time-meter, which is stopped instantaneously when the tail flicks. This time is defined as ‘withdrawal latency’.
Male CD-1 mice weighing around 25-30 grams (4-8 animals per each dose of the tested compound) were used. The animals were put in clear plastic cages above an IR source (7371-Plantar™ Analgesia Instrument, UGO Basile), where the IR generator is placed directly underneath the tail of the mouse and the light beam is focused on the proximal third of the tail.
The withdrawal latency, namely the time interval from the starting of the infrared radiation until the animal feels pain and flicks its tail is determined. The initial withdrawal latency for each animal was measured at t=0 and was determined as its baseline threshold.
In order to determine the analgesic effect of a tested drug, the drug (10 to 200 mg/kg body weight) was administered to mice either orally (p.o.) or by intraperitoneal (i.p.) or subcutaneous (s.c.) injection. Withdrawal latency was determined at different time points post-administration of the drug as indicated. Each reading was performed 2-3 times and the mean-value was calculated. […] The withdrawal latency at each time point post injection is the average of 4-8 animals per group. […] Paired T-test was used to assess significance in comparison to the baseline value (t=0). Morphine was used as a positive control (2 animals per dose).

[1] = I.P., 50 mg/kg, 15 min post-injection
[2] = I.P., 50 mg/kg, 45 min post-injection
[3] = I.P., 50 mg/kg, 75 min post-injection
[4] = I.P., 50 mg/kg, 105 min post-injection
[5] = I.P., 50 mg/kg, 135 min post-injection
[6] = I.P., 50 mg/kg, 285 min post-injection
[7] = I.P., 50 mg/kg, 345 min post-injection
[8] = I.P., 100 mg/kg, 15 min post-injection
[9] = I.P., 100 mg/kg, 45 min post-injection
[10] = I.P., 100 mg/kg, 75 min post-injection
[11] = I.P., 100 mg/kg, 105 min post-injection
[12] = I.P., 100 mg/kg, 135 min post-injection
[13] = I.P., 100 mg/kg, 285 min post-injection
[14] = I.P., 100 mg/kg, 345 min post-injection
[15] = I.P., 200 mg/kg, 15 min post-injection
[16] = I.P., 200 mg/kg, 45 min post-injection
[17] = I.P., 200 mg/kg, 75 min post-injection
[18] = I.P., 200 mg/kg, 105 min post-injection
[19] = I.P., 200 mg/kg, 135 min post-injection

Structure (SMILES) | Withdrawal latency (% of vehicle) (Male CD-1 mice; [1]) | Withdrawal latency (% of vehicle) (Male CD-1 mice; [2]) | Withdrawal latency (% of vehicle) (Male CD-1 mice; [3]) | Withdrawal latency (% of vehicle) (Male CD-1 mice; [4]) | Withdrawal latency (% of vehicle) (Male CD-1 mice; [5]) | Withdrawal latency (% of vehicle) (Male CD-1 mice; [8]) | Withdrawal latency (% of vehicle) (Male CD-1 mice; [9]) | Withdrawal latency (% of vehicle) (Male CD-1 mice; [10]) | Withdrawal latency (% of vehicle) (Male CD-1 mice; [11]) | Withdrawal latency (% of vehicle) (Male CD-1 mice; [12]) | Withdrawal latency (% of vehicle) (Male CD-1 mice; [15]) | Withdrawal latency (% of vehicle) (Male CD-1 mice; [16]) | Withdrawal latency (% of vehicle) (Male CD-1 mice; [18]) | other results
CCCCCCCCCCCCCCCCCC(=O)OC[C@H](COP(=O)([O-])OCC[N+](C)(C)C)OC(=O)C(CCC)CCCCCCC (stereo partly shown) [DP-M(3,7), 1-O-stearoyl-2-propylnonayl-sn-glycero-3-phosphocholine] | 132% of vehicle | 123% of vehicle | 119% of vehicle | 102% of vehicle | 112% of vehicle | 127% of vehicle | 156% of vehicle | 124% of vehicle | 114% of vehicle | 126% of vehicle |  |  |  | Withdrawal latency (% of vehicle) (Male CD-1 mice; [6]): 119% of vehicle; Withdrawal latency (% of vehicle) (Male CD-1 mice; [7]): 114% of vehicle; Withdrawal latency (% of vehicle) (Male CD-1 mice; [13]): 127% of vehicle; Withdrawal latency (% of vehicle) (Male CD-1 mice; [14]): 125% of vehicle
CCCCCCCCCCCCCCCCCC(=O)OC[C@H](COP(=O)([O-])OCC[N+](C)(C)C)OC(=O)C(CCCCC)CCCCC [DP-M(5,5), 1-O-stearoyl-2-pentylheptonayl-sn-glycero-3-phosphocholine] | 113% of vehicle | 107% of vehicle | 118% of vehicle | 142% of vehicle | 152% of vehicle | 148% of vehicle | 143% of vehicle | 148% of vehicle | 162% of vehicle | 171% of vehicle |  |  |  | Withdrawal latency (% of vehicle) (Male CD-1 mice; [6]): 121% of vehicle; Withdrawal latency (% of vehicle) (Male CD-1 mice; [7]): 124% of vehicle; Withdrawal latency (% of vehicle) (Male CD-1 mice; [13]): 155% of vehicle; Withdrawal latency (% of vehicle) (Male CD-1 mice; [14]): 124% of vehicle; dose dependence of analgesic effect (Male CD-1 mice; i.p. 25, 50, 100 mg/kg (FIG. 1)): dose dependent; size of analgesic effect, ranking among tested compounds (Male CD-1 mice): largest analgesic effects
CCCCCC(CCCCC)C(=O)O [M(5,5), 2-Pentylheptanoic acid] |  |  |  |  |  |  |  |  |  |  | 161% of vehicle | 135% of vehicle | 158% of vehicle | Withdrawal latency (% of vehicle) (Male CD-1 mice; [17]): 145% of vehicle; size of analgesic effect, ranking among tested compounds (Male CD-1 mice): largest analgesic effects
CCCCCCCCCCC(CCC)C(=O)O (stereo not shown) [M(3,10), 2-Propyldodecanoic acid] |  |  |  |  |  | 142% of vehicle | 155% of vehicle | 131% of vehicle | 156% of vehicle | 123% of vehicle | 186% of vehicle | 210% of vehicle | 183% of vehicle | size of analgesic effect, ranking among tested compounds (Male CD-1 mice): largest analgesic effects
CCCCCCCC(CCC)C(=O)O (stereo not shown) [M(3,7), 2-Propylnonanoic acid] |  |  |  |  |  |  |  |  |  |  |  |  |  | Withdrawal latency (% of vehicle) (Male CD-1 mice; I.P., 150 mg/kg, 15 min post-injection): 157% of vehicle; Withdrawal latency (% of vehicle) (Male CD-1 mice; I.P., 150 mg/kg, 45 min post-injection): 137% of vehicle; Withdrawal latency (% of vehicle) (Male CD-1 mice; I.P., 150 mg/kg, 75 min post-injection): 106% of vehicle; Withdrawal latency (% of vehicle) (Male CD-1 mice; I.P., 150 mg/kg, 105 min post-injection): 131% of vehicle
CCCCCCCC(CCCCCCC)OP(=O)(O)O [(7,7)-PO4, 8-Pentadecanyl Phosphate] |  |  |  |  |  |  |  |  |  |  |  |  |  | Withdrawal latency (% of vehicle) (Male CD-1 mice; P.O., 200 mg/kg, 45 min post-administration): 93% of vehicle; Withdrawal latency (% of vehicle) (Male CD-1 mice; P.O., 200 mg/kg, 75 min post-administration): 94% of vehicle; Withdrawal latency (% of vehicle) (Male CD-1 mice; P.O., 200 mg/kg, 105 min post-administration): 124% of vehicle; Withdrawal latency (% of vehicle) (Male CD-1 mice; P.O., 200 mg/kg, 135 min post-administration): 133% of vehicle; Withdrawal latency (% of vehicle) (Male CD-1 mice; P.O., 200 mg/kg, 285 min post-administration): 162% of vehicle; Withdrawal latency (% of vehicle) (Male CD-1 mice; P.O., 200 mg/kg, 345 min post-administration): 129% of vehicle
CCCCCCCCCCCCCCCCCCC(CCC)C(=O)O (stereo not shown) [M(3,18), 2-Propyleicosanoic acid] |  |  |  |  |  |  |  |  |  |  |  |  |  | melting point: 55.6 to 57.4 °C
CCCCCCCCCCC(CCC)C(=O)O (stereo not shown) [M(3,10)—Na, 2-Propyldodecanoic acid] | 151% of vehicle | 138% of vehicle | 128% of vehicle | 123% of vehicle | 102% of vehicle | 181% of vehicle | 153% of vehicle | 121% of vehicle | 143% of vehicle | 148% of vehicle | 158% of vehicle | 220% of vehicle | 141% of vehicle | Withdrawal latency (% of vehicle) (Male CD-1 mice; [17]): 216% of vehicle; Withdrawal latency (% of vehicle) (Male CD-1 mice; [19]): 175% of vehicle
CCCCCCCC(CCCCCCC)C(=O)O [M(7,7), 2-Heptylnonanoic acid] |  |  |  |  |  |  |  |  |  |  | 93% of vehicle | 124% of vehicle | 149% of vehicle | Withdrawal latency (% of vehicle) (Male CD-1 mice; [17]): 117% of vehicle; Withdrawal latency (% of vehicle) (Male CD-1 mice; [19]): 124% of vehicle
CCCCCCCCCCCCCCCCCC(=O)OC[C@H](COP(=O)([O-])OCC[N+](C)(C)C)OC(=O)C(CCC)CCCCCCCCCC (stereo partly shown) [DP-M(3,10), 1-O-stearoyl-2-propyldodecanoyl-sn-glycero-3-phosphocholine] | 123% of vehicle | 119% of vehicle | 113% of vehicle | 123% of vehicle | 123% of vehicle |  |  |  |  |  |  |  |  | Withdrawal latency (% of vehicle) (Male CD-1 mice; [6]): 129% of vehicle; Withdrawal latency (% of vehicle) (Male CD-1 mice; [7]): 107% of vehicle
CN1CC[C@]23c4c5ccc(O)c4O[C@H]2[C@@H](O)C=C[C@H]3[C@H]1C5 [Morphine, reference compound] |  |  |  |  |  |  |  |  |  |  |  |  |  | Withdrawal latency (% of vehicle) (Male CD-1 mice; I.P., 1 mg/kg, 15 min post-injection): 97% of vehicle; Withdrawal latency (% of vehicle) (Male CD-1 mice; I.P., 1 mg/kg, 45 min post-injection): 136% of vehicle; Withdrawal latency (% of vehicle) (Male CD-1 mice; I.P., 1 mg/kg, 75 min post-injection): 207% of vehicle; Withdrawal latency (% of vehicle) (Male CD-1 mice; I.P., 1 mg/kg, 105 min post-injection): 179% of vehicle; Withdrawal latency (% of vehicle) (Male CD-1 mice; I.P., 1 mg/kg, 255 min post-injection): 142%** % of vehicle; Withdrawal latency (% of vehicle) (Male CD-1 mice; I.P., 10 mg/kg, 15 min post-injection): 139% of vehicle; Withdrawal latency (% of vehicle) (Male CD-1 mice; I.P., 10 mg/kg, 45 min post-injection): 171% of vehicle; Withdrawal latency (% of vehicle) (Male CD-1 mice; I.P., 10 mg/kg, 75 min post-injection): 284% of vehicle; Withdrawal latency (% of vehicle) (Male CD-1 mice; I.P., 10 mg/kg, 105 min post-injection): 238% of vehicle; Withdrawal latency (% of vehicle) (Male CD-1 mice; I.P., 10 mg/kg, 255 min post-injection): 151%** % of vehicle
CCCCCC(CCCCC)C(=O)O [M(5,5)—Na, 2-Pentylheptanoic acid] | 115% of vehicle | 124% of vehicle | 117% of vehicle | 134% of vehicle |  | 137% of vehicle | 164% of vehicle | 164% of vehicle | 193% of vehicle |  |  |  |  | 
